In PubChem BioAssay AID1159560 (GlaxoSmithKline (GSK), 2015) one finds IC50 data, which are given here for 67 compounds.

A word on the IC50: it is the point on the concentration scale where inhibition reaches its midpoint.

Calls of active or inactive are those of the source. No rule for the calls is given here.

The assay concerns Leishmania donovani growth inhibition. In words: Leishmania donovani growth inhibition (AID 1159560).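 Also: parasites exposed to compound for 72 h before the viability read.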
In the case of `CN(C)S(=O)(=O)c1cccc(C(=O)Nc2nc(-c3ccccn3)cs2)c1`, the IC50 was 1.3 µM. With `CC(C)Nc1nccc(-c2c(-c3ccc(F)cc3)ncn2C2CCOCC2)n1` the figure was 25 µM; with `O=C(NCC(c1cccnc1)N1CCc2ccccc2C1)C(=O)Nc1cccc(Cl)c1` (configuration not stated), 1.3 µM; with `COc1ccc(Nc2nc(-c3ccccn3)cc(N3CCCC(O)C3)n2)cc1` (configuration not stated), 2.5 µM. On to `CC(C)(C)c1cc(NC2CC2)nc(-c2ccccn2)n1`, for which the IC50 is 1.6 µM.

Take `COc1ccc(-c2nc3ccncc3c(=O)n2CCOc2ccccc2)cc1`: the IC50 was 40 µM. Consider `c1ccc(-c2nc(NCc3ccco3)c3ccccc3n2)nc1`, for which the IC50 is 3.2 µM. For `CC(C(=O)Nc1ccccc1F)N(C)CC(=O)Nc1cccc2ccccc12` (configuration not stated) the value was 50 µM. In the case of `CN(C(=O)Nc1ccc2c(c1)CCN(C1CCC1)CC2)c1ccc(C#N)cc1`, the IC50 was 40 µM. In the case of `COc1ccc(S(=O)(=O)Nc2ccc(CN3CCN(C(=O)c4cccc(C#N)c4)CC3)cc2)cc1`, the 50% inhibitory concentration (IC50) was 32 µM. As to `Cc1nn(C2CCS(=O)(=O)C2)c(C)c1CN(C)C(=O)C=Cc1sc2ccccc2c1Cl` (configuration not stated), the IC50 was 13 µM. With `NC(=O)c1ccccc1Nc1nc(NC2CCCCC2)nc2[nH]ccc12`, the IC50 was 20 µM. For the compound `CCCCN(C(=O)c1ccc(NC(=O)C(C)C)cc1)c1ccccc1`, the concentration for half-maximal inhibition (IC50) was 1 µM.

For the compound `COc1ccc(Cl)cc1CC(=O)Nc1n[nH]c(-c2ccccn2)n1`, the IC50 is 4 µM. Turning to `CCN(CC)c1ncc(C(=O)c2ccc([N+](=O)[O-])o2)s1`, the IC50 was 5 µM. Consider `N#Cc1ccc(C(=O)Nc2cccc(-c3cccc(CN4CCC(O)CC4)c3)c2)cc1`, for which the IC50 is > 50 µM (inactive). Consider `O=C(NC(CO)c1ccc(F)cc1)c1ccc(-c2c[nH]c3ncccc23)s1` (configuration not stated), for which the IC50 is 32 µM. Regarding `Cc1c(C(=O)NCCCCn2ccnc2)oc2c(C)cccc12`, the IC50 is > 50 µM (inactive).

`N#Cc1cc(-c2ccnc(Nc3cccc(CN4CCOCC4)c3)n2)ccc1NCCN`: the IC50 is 4 µM. `COc1ccc(NS(=O)(=O)c2cccc(NC(=O)c3cc(F)cc(F)c3)c2)cc1`: the IC50 was 3.2 µM.

For the compound `CCOc1ccc2nc(NC(=O)c3ccc([N+](=O)[O-])s3)sc2c1`, the IC50 was 2.5 µM. In the case of `COc1ccccc1C=CCN1C[C@H]2CCC[C@@H](C1)C2(O)c1cccnc1` (some centres not stated), the IC50 is > 50 µM (inactive). On to `O=C(CCc1ccc(-c2ccccc2)o1)N1CCN(c2ccc(O)cc2)CC1`, for which the IC50 is 10 µM. In the case of `O=C(Nc1ccccc1C(=O)Nc1ccccn1)c1ccco1`, the IC50 is > 50 µM (inactive).

For `Cc1cc(NC(=O)CC2CCCCC2)n(-c2nc3c(c(=O)[nH]2)CCC3)n1`, the IC50 is 0.032 µM. For `c1cncc(CN(Cc2ccco2)Cc2cn[nH]c2-c2cccs2)c1`, the IC50 is 32 µM. With `CCc1cccc(CC)c1-n1c(SCC(=O)N2CC(=O)Nc3ccccc32)nnc1-c1cccnc1`, the IC50 was 40 µM. `COc1cc(F)c2ncc(F)c(CCN3CC[C@H](NCc4cc5c(cn4)OCS5)[C@@H](O)C3)c2c1`: the IC50 was 25 µM. `O=C(CSc1nnc(-c2ccc3c(c2)OCO3)o1)N(Cc1ccco1)CC(F)(F)F`: the IC50 is 16 µM. As for `CCCC(=O)N(Cc1ccccn1)c1nc2ccccc2s1`, the IC50 is 7.9 µM. Turning to `O=C(CC1(O)C(=O)N(Cc2cccs2)c2ccc(Br)cc21)c1cccnc1` (configuration not stated), the IC50 was > 50 µM (inactive). With `O=C(CN(Cc1ccccn1)Cc1ccccn1)NCc1csc(-c2cccs2)n1`, the IC50 was 13 µM. As to `O=C(c1cccc(Nc2ncc(-c3ccc4c(c3)OCO4)cn2)c1)N1CCSC1`, the IC50 is 1.3 µM. `CN(Cc1cccnc1)Cc1ccc(N2CCN(C(=O)C3(c4ccc(Cl)cc4)CC3)CC2)nc1`: the IC50 is 32 µM.

For `O=C(CN1CCN(S(=O)(=O)c2cccc([N+](=O)[O-])c2)CC1)Nc1ccc(Oc2ccccc2)cc1`, the IC50 is 4 µM.

As for `O=C1CSC(c2cccnc2)N1c1ccc(Cl)cc1Cl` (configuration not stated), the IC50 is 5 µM.

Consider `COc1cccc(CCNC(=O)C(c2cn[nH]c2)N2CCN(c3ccc(Cl)cc3)CC2)c1` (configuration not stated), for which the IC50 was 13 µM. For `COc1ccccc1CNc1cc(C2CC2)nc(-c2nccn2C)n1` the value was 1 µM; for `COCc1cnc2c(c1SCc1c(F)cccc1Cl)c(=O)n(C)c(=O)n2C`, 4 µM.

For the compound `COc1ccccc1-n1c(SCC(=O)Nc2ccc3c(c2)OCO3)nc2c(c1=O)SCC2`, the IC50 is 10 µM. Regarding `CC(C)(C)CC(=O)NCc1noc(COc2ccccc2)n1`, the IC50 was > 50 µM (inactive). Regarding `COc1ccccc1-c1c(C)[nH]c2nc(N)nc(C)c12`, the IC50 is 13 µM. For `Cc1ccc2c(c1)SC(C(=O)Nc1n[nH]c(-c3ccccn3)n1)C2` (configuration not stated), the IC50 is 6.3 µM. `COc1ccc(C(=O)Nc2cc(C(F)(F)F)ccc2N2CCOCC2)c(OC)c1`: the IC50 was 5 µM. On to `Fc1ccc(Nc2nc(-c3ccccn3)cs2)cc1`, for which the IC50 was 20 µM.

With `Cc1cc(NC(=O)C2CC2)ccc1OC1CCN(Cc2ccco2)CC1`, the IC50 was > 50 µM (inactive). For the compound `COc1ccc(NS(=O)(=O)c2cc(NC(=O)Cc3ccc(C)cc3)ccc2N2CCOCC2)cc1`, the IC50 was 40 µM.

For `Cc1ccc2sc(NC(=O)Cn3cnc([N+](=O)[O-])n3)nc2c1`, the IC50 is > 50 µM (inactive). For `COc1ccc(NC(=O)c2ccc(NC(=O)CN(c3ccccc3C)S(C)(=O)=O)cc2)cc1` the value was > 50 µM (inactive); for `Cc1nn(C)c(Cl)c1CN(Cc1cccnc1)Cc1ccsc1`, 2 µM; for `Clc1ccc(OCCN2CCCCC2c2cccnc2)c(Cl)c1` (configuration not stated), 5 µM. With `C[C@@H](Oc1cc(-n2cnc3ccc(C(O)CO)cc32)sc1C(N)=O)c1ccccc1C(F)(F)F` (some centres not stated) the figure was 16 µM; with `Cc1cc(Nc2ccc(C#N)c(Cl)c2C)n[nH]1`, 50 µM. On to `CC(C)(C)C(=O)NCCc1csc(-c2ccc(F)cc2)n1`, for which the IC50 is > 50 µM (inactive). As for `O=C(c1ccc(OCCCc2cnc[nH]2)cc1)C1CC1`, the IC50 was > 50 µM (inactive). On to `Cc1cc(C)n(-c2nc(NC(C)(C)C)nc(N3CCOCC3)n2)n1`, for which the IC50 was 6.3 µM. With `COc1cccc(C(=O)[C@H]2C[C@@H]2CN(Cc2cccnc2)Cc2cccnc2)c1` the figure was 0.16 µM; with `CC(=O)NC1(c2ccccc2)CCN(CC(=O)Nc2ccccc2-c2ccccc2)CC1`, 20 µM; with `O=C(NCc1ccc(-n2cccc2)cc1)c1nc(Cn2ccc([N+](=O)[O-])n2)no1`, > 50 µM (inactive).

Regarding `Cc1ccnc(NS(=O)(=O)c2ccc(NC(=O)c3ccc([N+](=O)[O-])s3)cc2)n1`, the IC50 was 4 µM. For the compound `O=C(c1cc2cc(Cl)ccc2[nH]1)N1CCCCC1c1cccnc1` (configuration not stated), the IC50 is 50 µM.

Regarding `CC(c1ccc2c(c1)CCCC2)N(C)c1ncc2c(N)nc(N)nc2n1` (configuration not stated), the IC50 is 2.5 µM. With `COc1ccc(Nc2nccc(N(C)c3n[nH]c4c(F)cccc34)n2)cc1S(C)(=O)=O`, the IC50 is 25 µM. Consider `Cc1nn(-c2nc3ccccc3[nH]2)c2c1C(c1ccc(O)cc1)CC(=O)N2` (configuration not stated), for which the half-inhibitory concentration (IC50) is 0.79 µM.

Turning to `CC(C)CC(=O)NC(c1cccs1)c1ccc2cccnc2c1O` (configuration not stated), the half-inhibitory concentration (IC50) is 6.3 µM. For the compound `c1ccc(-c2nc(NC3CCCCC3)cc(C3CC3)n2)nc1`, the IC50 is 0.79 µM.

Consider `O=C(NCc1nnc2n1CCCCC2)c1ccc(-c2ccc(F)cc2)o1`, for which the IC50 was > 50 µM (inactive).
